Assay [1] has as its system B lymphocytes from patients suffering from chronic lymphoid leukemia (CLL). As to conditions: for cell effect CLL 40 (survival): 4 hours of culture, cells not labeled with annexin or propidium iodide; for effect of the peptide on cell mortality, in words (relative to A1 WT IRS): 40 μM, 4 hours, FIG. 9. How it is done:
Peripheral blood B lymphocytes taken from patients suffering from CLL and then purified on a Ficoll cushion and placed in culture are incubated in the presence of […] of the peptides described for FIG. 2. The percentage cell survival after 4 hours (gray column) or 24 hours (white column) of culture corresponds to the percentage of cells labeled neither with annexin nor with propidium iodide, evaluated by flow cytometry.
The CLL B lymphocytes were obtained from peripheral blood of 18 different patients suffering from chronic lymphoid leukemia. […] The samples were taken in the Brest hospital center, in the hematology department. The blood samples were taken after informing the patients and obtaining their informed consent.
The lymphocytes, mononuclear cells, were isolated from the heparinized peripheral blood samples by Ficoll-Hypaque (LSM 1077 lymphocyte, euro-bio) centrifugation. The red blood cells were lyzed by incubation for 10 min in VersaLyse Lysing Solution (Beckman Coulter). The mononuclear cells are obtained after 2 washes in culture medium (RPMI1640, Gibco BRL).
(§1) The cells were cultured in a culture medium composed either of RPMI 1640 (B lymphocytes) or of DMEM (COS7, HCT116, HGT1, 293, HeLa) containing 10% of FCS (fetal calf serum, 1% of penicillin-streptomycin and 1% of glutamine, Gibco BRL). The cells are distributed in a 24-well plate and cultured at 37° C. in a humid atmosphere under 5% CO2.
(§2) 400 μl of cell suspension (1×10^6 cells/ml) per well were treated for 4 h or 24 h with various concentrations of peptides. The test for activity of the peptides in the presence of emetine (FIG. 6) was carried out by preincubating the cells with 100 μM of emetine for one hour before the addition of peptide.
(§3) After the cells have been washed with PBS, they were analyzed using the Annexin V-FITC IP system according to the supplier's recommendations (Beckman Coulter).
The cells taken from patients suffering from chronic lymphoid leukemia were purified on a Ficoll cushion. […] The cells were placed in culture in RPMI medium in the presence of 10% FCS (fetal calf serum). The peptides were added directly to the culture medium. These peptides comprise the IRS sequence (the amino acid sequence of which is RYIRS) which is known to allow the penetration of peptides into B lymphocytes in culture (Dong et al., 2005). […] The cells which survive the treatment are those which are labeled neither with annexin nor with propidium iodide.

The subject of assay [2] is control T lymphocytes (patients suffering from hemochromatosis). Briefly: Cell survival of control T lymphocytes, annexin/propidium iodide flow cytometry. The conditions noted are these: 40 μM peptide, 4 hours of culture, cells not labeled with annexin or propidium iodide. The class given is cell-based, human. How it is done: FIG. 7: Activity of the A1WT peptide on cells of lymphocytic, lymphoid, gastric, colonic or renal origin The cells are prepared and placed in culture (see Materials and Methods) and then incubated for 4 H with the A1WT or A1 YALA peptide. The percentage cell survival corresponds to the percentage of cells labeled neither with annexin nor with propidium iodide, evaluated by flow cytometry. The names of the pathological conditions from which the patients from whom the samples are taken are suffering are indicated under the figure. The control T (L.T.) and B (L.B.) lymphocytes are taken from patients suffering from a disease not related to a lymphocytic pathological condition (hemochromatosis).
The control B lymphocytes and T lymphocytes originate from peripheral blood samples from patients suffering from hemochromatosis, provided by the CTS transfusion center in Brest. The B and T lymphocytes were isolated using the Rosett-Sep kit (Stemcell Technologies) according to the supplier's recommendations.
as §1, §2, §3
In general terms: In flow cytometry, cells or beads pass a laser one at a time.

Assay [3] has the same test system. Described as above. As to conditions: 40 μM, 4 hours; FIG. 9. The assay is classed as cell-based, human.
In assay [4] the test system is Jok cells (cell line derived from B lymphocytes). Briefly: Cell survival of Jok cells, annexin/propidium iodide flow cytometry. As to conditions: for cell effect Jok 20 (survival): 20 μM peptide; for cell effect Jok 20 (survival) / cell effect Jok 40 (survival): 4 hours of culture, cells not labeled with annexin or propidium iodide; for cell effect Jok 40 (survival): 40 μM peptide; for effect of the peptide on cell mortality, in words (relative to A1 WT IRS): 4 hours, FIG. 9. The class given is cell-based, human. How it is done:
The cells are treated as indicated for FIG. 7, with the CLL cells, control T lymphocytes and Jok lymphocytes, which are incubated with the A1 WT IRS peptide and derivatives thereof described in table 1. The Jok cells were incubated either with 20 μM (JOK 20) or with 40 μM (JOK 40) of each of the peptides. In the interests of simplifying the legend, the A1 WT IRS peptide is referred to as “WT”. Likewise, the derivatives thereof are referred to by the name of the mutations (A1 K3I IRS is referred to as “K3I”, for example).
as §1, §2, §3
The peptides were tested on B lymphocytes from patients suffering from chronic lymphoid leukemia, control T lymphocytes, or Jok cells (cell line derived from B lymphocytes). The experiment was repeated three times for each type of cell tested.

Where [5] appears, read: concentration not given (20 or 40 μM).

With RRKYSRDFLLRFRYIRS [A1 G5S IRS], the “cell effect CLL 40 (survival)” value in assay [1] (40 μM peptide) is “+ (+: survival <25%)”. Moreover, the “effect of the peptide on cell mortality, in words (relative to A1 WT IRS)” value (“effect of the peptide … (relative to A1 WT IRS)” below) in assay [1], in assay [3] and in assay [4] (setting [5]) was “slightly increases the effect” each time. Also, the “cell effect LT 40 (survival)” value in assay [2] is “+ (+: survival <25%)”. In assay [4], the “cell effect Jok 20 (survival)” value is “+ (+: survival <25%)”. In assay [4], the “cell effect Jok 40 (survival)” value is “+ (+: survival <25%)”.

Regarding KKKYGRDFLLRFRYIRS [A1 R1, 2K IRS], the “cell effect CLL 40 (survival)” value in assay [1] (40 μM peptide) is recorded as “+ (+: survival <25%)”. Further, the “effect of the peptide … (relative to A1 WT IRS)” value in assay [1] is listed as “decreases the effect”; in assay [3] it was “decreases the effect”; in assay [4] (20 μM), “decreases the effect”; in assay [4] (40 μM), “the same effect as the A1 WT IRS peptide”. In assay [2], the “cell effect LT 40 (survival)” value is “+/− (+/−: survival between 25 and 50%)”. The “cell effect Jok 20 (survival)” value in assay [4] is “+/− (+/−: survival between 25 and 50%)”. The “cell effect Jok 40 (survival)” value in assay [4] is reported as “+ (+: survival <25%)”.

With RRKYGREFLLRFRYIRS [A1 D7E IRS], the “cell effect CLL 40 (survival)” value in assay [1] (40 μM peptide) is recorded as “+ (+: survival <25%)”. In addition, the “effect of the peptide … (relative to A1 WT IRS)” value is listed as “does not modify the action” in assay [1], “does not modify the action” in assay [3] and “its effect is potentiated” in assay [4] (setting [5]). In assay [2], the “cell effect LT 40 (survival)” value is reported as “+ (+: survival <25%)”. For the same compound, the “cell effect Jok 20 (survival)” value in assay [4] is reported as “+ (+: survival <25%)”. The “cell effect Jok 40 (survival)” value in assay [4] is recorded as “+ (+: survival <25%)”.

As for RRKYGKDFLLRFRYIRS [A1 R6K IRS], the “cell effect CLL 40 (survival)” value in assay [1] (40 μM peptide) is reported as “+ (+: survival <25%)”. Moreover, the “effect of the peptide … (relative to A1 WT IRS)” value in assay [1], in assay [3] and in assay [4] (setting [5]) was “partially decreases the action” in each case. Moreover, the “cell effect LT 40 (survival)” value in assay [2] is “+/− (+/−: survival between 25 and 50%)”. The “cell effect Jok 20 (survival)” value in assay [4] is “+/− (+/−: survival between 25 and 50%)”. Moreover, the “cell effect Jok 40 (survival)” value in assay [4] is “+ (+: survival <25%)”.

RRKYGHDFLLRFRYIRS [A1 R6H IRS]: the “cell effect CLL 40 (survival)” value in assay [1] (40 μM peptide) was “+/− (+/−: survival between 25 and 50%)”. The “effect of the peptide … (relative to A1 WT IRS)” value is reported as “abolishes the effect” in assay [1], “abolishes the effect” in assay [3] and “the effect is potentiated” in assay [4] (setting [5]). The “cell effect LT 40 (survival)” value in assay [2] was “+/− (+/−: survival between 25 and 50%)”. In addition, the “cell effect Jok 20 (survival)” value in assay [4] is “+ (+: survival <25%)”. Also, the “cell effect Jok 40 (survival)” value in assay [4] is on record as “+ (+: survival <25%)”.

As to RRKYGRDFLLRWRYIRS [A1 F12W IRS], the “cell effect CLL 40 (survival)” value in assay [1] (40 μM peptide) is given as “+ (+: survival <25%)”. The “effect of the peptide … (relative to A1 WT IRS)” value in assay [1], in assay [3] and in assay [4] (setting [5]) was “does not modify the action” throughout. For the same compound, the “cell effect LT 40 (survival)” value in assay [2] was “+ (+: survival <25%)”. In addition, the “cell effect Jok 20 (survival)” value in assay [4] is “+ (+: survival <25%)”. Also, in assay [4], the “cell effect Jok 40 (survival)” value is “+/− (+/−: survival between 25 and 50%)”.

As to GGKYGRDFLLRFRYIRS [A1 R1, 2G IRS], the “cell effect CLL 40 (survival)” value in assay [1] (40 μM peptide) is recorded as “− (−: survival >50%)”. In addition, the “effect of the peptide … (relative to A1 WT IRS)” value is on record as “abolishes the effect” in assay [1], “abolishes the effect” in assay [3], “abolishes the effect” in assay [4] (20 μM) and “only partially decreased” in assay [4] (40 μM). Besides, the “cell effect LT 40 (survival)” value in assay [2] is recorded as “− (−: survival >50%)”. In addition, the “cell effect Jok 20 (survival)” value in assay [4] is given as “− (−: survival >50%)”. Besides, the “cell effect Jok 40 (survival)” value in assay [4] is “+/− (+/−: survival between 25 and 50%)”.

With RRKYARDFLLRFRYIRS [A1 G5A-IRS], the “cell effect CLL 40 (survival)” value in assay [1] (40 μM peptide) is on record as “+ (+: survival <25%)”. The “effect of the peptide … (relative to A1 WT IRS)” value in assay [1], in assay [3] and in assay [4] (setting [5]) was “slightly increases the effect” in each case. For the same compound, the “cell effect LT 40 (survival)” value in assay [2] is reported as “+ (+: survival <25%)”. Also, in assay [4], the “cell effect Jok 20 (survival)” value is “+ (+: survival <25%)”. Besides, the “cell effect Jok 40 (survival)” value in assay [4] is listed as “+ (+: survival <25%)”.

Take RRRYGRDFLLRFRYIRS [A1 K3R IRS]: the “cell effect CLL 40 (survival)” value in assay [1] (40 μM peptide) was “+ (+: survival <25%)”. Also, the “effect of the peptide … (relative to A1 WT IRS)” value in assay [1], in assay [3] and in assay [4] (setting [5]) was “does not modify the effect” in each case. Moreover, the “cell effect LT 40 (survival)” value in assay [2] is given as “+ (+: survival <25%)”. The “cell effect Jok 20 (survival)” value in assay [4] is “+ (+: survival <25%)”. In assay [4], the “cell effect Jok 40 (survival)” value is “+ (+: survival <25%)”.

As for “RIIYDRHFLLNMRYIRS [BPSg WT IRS, reference compound]”, the “effect on percentage cell survival” value in assay [1] (40 μM peptide, 4 H and 24 H, FIG. 3) is reported as “the percentage survival did not decrease”.

As for `CC[C@H]1CN2CCc3cc(OC)c(OC)cc3[C@@H]2C[C@@H]1C[C@H]1NCCc2cc(OC)c(OC)cc21` [emetine, reference compound], the “cell survival with emetine alone” value in assay [1] (100 μM emetine, after 4 H of incubation (from 97%), FIG. 6) was 82%.

In the case of RRIYGRDFLLRFRYIRS [A1 K3I IRS], in assay [1] (40 μM peptide), the “cell effect CLL 40 (survival)” value is recorded as “− (−: survival >50%)”. Also, the entries for the “effect of the peptide … (relative to A1 WT IRS)” value in assay [1] and in assay [4] (20 μM) were “loss of effect” and “partially”, respectively. In addition, the “cell effect Jok 20 (survival)” value in assay [4] was “+/− (+/−: survival between 25 and 50%)”. The “cell effect Jok 40 (survival)” value in assay [4] is “+ (+: survival <25%)”.

For the compound “RIKYDRKFLLDRRYIRS [BP2 I3K IRS, reference compound]”, in assay [1] (40 μM peptide), the “cell effect CLL 40 (survival)” value is “− (−: survival >50%)”. Also, in assay [1] (Example 6 (CLL cells, control T lymphocytes, Jok cells)), the “action of the peptide on cell survival, in words, cell type not given” value is recorded as “does not confer a better efficacy”. The “cell effect LT 40 (survival)” value in assay [2] is “− (−: survival >50%)”. Besides, in assay [4], the “cell effect Jok 20 (survival)” value is given as “− (−: survival >50%)” and the “cell effect Jok 40 (survival)” value is “− (−: survival >50%)”.

These data come from patent US9745357B2, “Peptides used for treating cancers and, in particular, chronic lymphoid leukaemia” (Centre National de la Recherche Scientifique, priority 2009, dated 2017).
